Assay results taken from ChEMBL document CHEMBL2417465, “One-pot synthesis and cytotoxicity studies of new Mannich base derivatives of polyether antibiotic--lasalocid acid” (Bioorg Med Chem Lett, 2013).
Active and inactive are the calls of the source. The rule behind the calls is not given here.

Legend:
[1] = Cytotoxicity against HLMEC cells after 72 hrs by SRB assay; assay type: cell-based, Homo sapiens; details: for Activity: human, hlmec; for IC50: Homo sapiens, HLMEC
A549 [2] = assay: Cytotoxicity against human A549 cells after 72 hrs by MTT assay; assay type: functional, cell-based; details: for IC50: A549, 72 h
MCF7 [3] = assay: Cytotoxicity against human MCF7 cells after 72 hrs by MTT assay; assay type: functional, cell-based; details: for IC50: MCF7, 72 h
P388 [4] = assay: Cytotoxicity against mouse P388 cells after 72 hrs by MTT assay; assay type: functional, cell-based; details: for IC50: P388, 72 h
BALB/3T3 = assay: Cytotoxicity against mouse BALB/3T3 cells after 72 hrs by SRB assay; assay type: cell-based; details: for Activity: mouse, balb/3t3, 72 h; for IC50: Mus musculus, BALB/3T3, 72 h
HT-29 [5] = assay: Cytotoxicity against human HT-29 cells after 72 hrs by MTT assay; assay type: functional, cell-based; details: for IC50: HT-29, 72 h
A549 [6] = assay: Selectivity index, ratio of IC50 for mouse BALB/3T3 cells to IC50 for human A549 cells; assay type: functional
P388 [7] = assay: Selectivity index, ratio of IC50 for HLMEC cells to IC50 for mouse P388 cells; assay type: functional
HT-29 [8] = assay: Selectivity index, ratio of IC50 for HLMEC cells to IC50 for human HT-29 cells; assay type: functional
HT-29 [9] = assay: Selectivity index, ratio of IC50 for mouse BALB/3T3 cells to IC50 for human HT-29 cells; assay type: functional
A549 [10] = assay: Selectivity index, ratio of IC50 for HLMEC cells to IC50 for human A549 cells; assay type: functional
P388 [11] = assay: Selectivity index, ratio of IC50 for mouse BALB/3T3 cells to IC50 for mouse P388 cells; assay type: functional
MCF7 [12] = assay: Selectivity index, ratio of IC50 for HLMEC cells to IC50 for human MCF7 cells; assay type: functional
MCF7 [13] = assay: Selectivity index, ratio of IC50 for mouse BALB/3T3 cells to IC50 for human MCF7 cells; assay type: functional

Row | Compound | Activity [1] | Activity (A549 [2]) | Activity (MCF7 [3]) | Activity (P388 [4]) | Activity (BALB/3T3) | Activity (HT-29 [5]) | IC50 [1] [µM] | IC50 (A549 [2]) [µM] | Ratio IC50 (A549 [6]) | Ratio IC50 (P388 [7]) | IC50 (MCF7 [3]) [µM] | Ratio IC50 (HT-29 [8]) | Ratio IC50 (HT-29 [9]) | IC50 (P388 [4]) [µM] | Ratio IC50 (A549 [10]) | Ratio IC50 (P388 [11]) | IC50 (BALB/3T3) [µM] | IC50 (HT-29 [5]) [µM] | Ratio IC50 (MCF7 [12]) | Ratio IC50 (MCF7 [13])
1 | CCCCCCCCCCCCN(CCCCCCCCCCCC)Cc1c(CC[C@@H](C)[C@H](O)[C@H](C)C(=O)[C@H](CC)[C@H]2O[C@](CC)([C@H]3CC[C@](O)(CC)[C@H](C)O3)C[C@@H]2C)ccc(C)c1O | Non-toxic | inactive | inactive | inactive | Non-toxic | inactive |  |  |  |  |  |  |  |  |  |  |  |  |  | 
2 | CC[C@@H](C(=O)[C@@H](C)[C@@H](O)[C@H](C)CCc1ccc(C)c(O)c1CN1CCOCC1)[C@H]1O[C@](CC)([C@H]2CC[C@](O)(CC)[C@H](C)O2)C[C@@H]1C |  |  |  |  |  |  | 4.86 | 6.81 | 2.1 | 1.5 | 2.08 | 0.85 | 2.5 | 3.23 | 0.71 | 4.44 | 14.3 | 5.74 | 2.33 | 6.89
3 | CC[C@@H](C(=O)[C@@H](C)[C@@H](O)[C@H](C)CCc1ccc(C)c(O)c1C(=O)O)[C@H]1O[C@](CC)([C@H]2CC[C@](O)(CC)[C@H](C)O2)C[C@@H]1C [LASALOCID] |  |  |  |  |  |  | 1.75 | 1.8 | 4.08 | 0.39 | 3.12 | 0.9 | 3.77 | 4.54 | 0.97 | 1.62 | 7.35 | 1.95 | 0.56 | 2.36
4 | CCCCCCCCN(CCCCCCCC)Cc1c(CC[C@@H](C)[C@H](O)[C@H](C)C(=O)[C@H](CC)[C@H]2O[C@](CC)([C@H]3CC[C@](O)(CC)[C@H](C)O3)C[C@@H]2C)ccc(C)c1O | Non-toxic | inactive | inactive | inactive | Non-toxic | inactive |  |  |  |  |  |  |  |  |  |  |  |  |  | 
5 | CCCN(CCC)Cc1c(CC[C@@H](C)[C@H](O)[C@H](C)C(=O)[C@H](CC)[C@H]2O[C@](CC)([C@H]3CC[C@](O)(CC)[C@H](C)O3)C[C@@H]2C)ccc(C)c1O |  |  |  |  |  |  | 4.12 | 5.3 | 4.29 | 1.15 | 5.62 | 0.59 | 3.23 | 3.58 | 0.78 | 6.35 | 22.7 | 7.03 | 0.73 | 4.04
6 | CC[C@@H](C(=O)[C@@H](C)[C@@H](O)[C@H](C)CCc1ccc(C)c(O)c1CN(Cc1ccccc1)Cc1ccccc1)[C@H]1O[C@](CC)([C@H]2CC[C@](O)(CC)[C@H](C)O2)C[C@@H]1C |  |  |  |  |  |  | 4.61 | 36.8 | 2.09 | 1.12 | 18.4 | 0.06 | 1.02 | 4.11 | 0.13 | 18.72 | 76.9 | 75.6 | 0.25 | 4.17
7 | CC[C@@H](C(=O)[C@@H](C)[C@@H](O)[C@H](C)CCc1ccc(C)c(O)c1CN(C(C)C)C(C)C)[C@H]1O[C@](CC)([C@H]2CC[C@](O)(CC)[C@H](C)O2)C[C@@H]1C |  |  |  |  |  |  | 4.63 | 5.62 | 3.03 | 0.97 | 5.5 | 0.87 | 3.2 | 4.79 | 0.82 | 3.56 | 17.1 | 5.33 | 0.84 | 3.1
8 | CCCCN(CCCC)Cc1c(CC[C@@H](C)[C@H](O)[C@H](C)C(=O)[C@H](CC)[C@H]2O[C@](CC)([C@H]3CC[C@](O)(CC)[C@H](C)O3)C[C@@H]2C)ccc(C)c1O |  |  |  |  |  |  | 4.43 | 5.27 |  | 0.69 | 6.11 | 0.63 |  | 6.35 | 0.84 |  |  | 7.02 | 0.73 | 
